ChEMBL document CHEMBL1125576, “alpha-Keto amide inhibitors of aminopeptidases” (J Med Chem, 1992)

Experiments:
Aminopeptidase B = Aminopeptidase B (Homo sapiens, UniProt Q9H4A4); experiment: Compound was tested for binding affinity towards arginyl aminopeptidase
Aminopeptidase N [1] = molecular target: T1, Aminopeptidase N (Homo sapiens, UniProt P15144); experiment: Compound was tested for binding affinity towards microsomal aminopeptidase; Kii was reported
Aminopeptidase N [2] = molecular target: T1, Aminopeptidase N; experiment: Compound was tested for binding affinity towards microsomal aminopeptidase; Kis was reported
Aminopeptidase N [3] = molecular target: T1, Aminopeptidase N; experiment: Compound was tested for binding affinity towards microsomal aminopeptidase

Aminopeptidase B, sequence (Q9H4A4 whole entry): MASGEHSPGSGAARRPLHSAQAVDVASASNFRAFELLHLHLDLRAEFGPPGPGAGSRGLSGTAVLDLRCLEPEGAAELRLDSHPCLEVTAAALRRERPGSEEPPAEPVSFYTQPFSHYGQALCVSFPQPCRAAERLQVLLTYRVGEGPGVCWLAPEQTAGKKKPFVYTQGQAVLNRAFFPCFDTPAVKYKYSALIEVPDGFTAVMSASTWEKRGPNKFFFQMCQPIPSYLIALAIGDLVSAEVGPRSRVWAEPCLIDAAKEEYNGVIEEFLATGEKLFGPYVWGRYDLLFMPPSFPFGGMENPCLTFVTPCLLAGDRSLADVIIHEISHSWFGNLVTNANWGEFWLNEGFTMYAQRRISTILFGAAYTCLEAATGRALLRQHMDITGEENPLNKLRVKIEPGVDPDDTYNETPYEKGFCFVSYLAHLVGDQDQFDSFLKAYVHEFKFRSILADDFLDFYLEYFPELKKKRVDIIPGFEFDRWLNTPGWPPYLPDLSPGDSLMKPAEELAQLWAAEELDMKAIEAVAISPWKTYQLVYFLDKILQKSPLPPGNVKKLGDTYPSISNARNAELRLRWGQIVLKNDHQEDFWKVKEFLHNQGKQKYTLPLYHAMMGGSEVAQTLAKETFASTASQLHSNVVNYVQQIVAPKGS
T1 sequence (P15144 whole entry): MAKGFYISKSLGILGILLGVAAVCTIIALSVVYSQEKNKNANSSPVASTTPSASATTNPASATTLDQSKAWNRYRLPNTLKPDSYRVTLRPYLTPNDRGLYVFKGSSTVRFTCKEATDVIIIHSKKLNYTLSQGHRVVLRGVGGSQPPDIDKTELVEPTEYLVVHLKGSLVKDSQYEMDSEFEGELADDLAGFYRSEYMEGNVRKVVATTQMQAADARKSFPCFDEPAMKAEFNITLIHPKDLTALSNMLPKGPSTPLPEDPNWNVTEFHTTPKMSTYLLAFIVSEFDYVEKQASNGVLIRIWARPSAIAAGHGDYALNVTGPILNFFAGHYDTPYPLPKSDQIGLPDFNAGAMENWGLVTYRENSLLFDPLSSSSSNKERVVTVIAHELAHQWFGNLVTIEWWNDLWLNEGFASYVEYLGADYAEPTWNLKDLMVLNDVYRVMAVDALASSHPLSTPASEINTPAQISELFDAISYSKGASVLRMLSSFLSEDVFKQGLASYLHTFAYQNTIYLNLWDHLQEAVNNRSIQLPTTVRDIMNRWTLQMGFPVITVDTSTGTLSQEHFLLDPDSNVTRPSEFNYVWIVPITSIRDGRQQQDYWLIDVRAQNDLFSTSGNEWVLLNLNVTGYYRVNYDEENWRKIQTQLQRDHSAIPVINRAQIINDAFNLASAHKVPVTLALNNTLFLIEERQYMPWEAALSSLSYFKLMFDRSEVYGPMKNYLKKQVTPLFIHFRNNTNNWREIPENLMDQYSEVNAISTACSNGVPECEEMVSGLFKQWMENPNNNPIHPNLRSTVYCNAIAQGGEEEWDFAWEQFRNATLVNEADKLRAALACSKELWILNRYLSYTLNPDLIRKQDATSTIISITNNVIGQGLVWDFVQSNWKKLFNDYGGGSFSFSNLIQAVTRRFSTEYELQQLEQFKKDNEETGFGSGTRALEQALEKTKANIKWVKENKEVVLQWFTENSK

Ki (Aminopeptidase B) | Ki (Aminopeptidase N [1]) | Ki (Aminopeptidase N [2]) | Ki (Aminopeptidase N [3]) | Structure (SMILES)
0.17 µM | 260 µM | 79 µM |  | CC(C)C[C@H](N)C(=O)CC(Cc1ccccc1)C(=O)O (stereo partly drawn)
6.5 µM |  |  | 18 µM | CC(C)CCNC(=O)C(=O)[C@H](N)CC(C)C
3.2 µM |  |  | 10.5 µM | CC(C)CCNC(=O)C(=O)[C@@H](N)CC(C)C
> 300 µM |  |  | 24 µM | CC(C)CCNC(=O)[C@@H](O)[C@H](N)CC(C)C
1.5 µM |  |  | 2.5 µM | CC(C)CCNC(=O)C(=O)C(N)Cc1ccccc1 (stereo not drawn)
39 µM |  |  | 20 µM | CC(C)CCNC(=O)[C@@H](O)[C@H](N)Cc1ccccc1
130 µM | 940 µM | 660 µM |  | CC(C)C[C@H](N)C(=O)CC(C)C(=O)O (stereo partly drawn)
> 1000 µM |  |  | 430 µM | CC(=O)[C@@H](N)CC(C)C
